Source: patent US11634452B2, “Compounds for treating neurodegenerative disorders” (ETHNODYNE, priority 2017, dated 2023)

Test system: primary rat cortical neurons injured with Aβ1-42
Experiment: Neuroprotective effect on an in vitro model of Alzheimer disease
Type: cell-based
Experimental: These peptides contribute to cerebrovascular lesions and are neurotoxic. This study investigated the neuroprotective effect of the plant extract of the invention on rat primary cortical cultures following exposure to Aβ1-42 in an in vitro AD model (Callizot. N., et al., 2013).
Rat cortical neurons were cultured as described in Example 6.
The cortical neurons were intoxicated with amyloid beta peptides solutions after 11 days of culture in presence of tested compound CR777.
Briefly, Aβ1-42 peptide (Batch: APN09080-1-1, Abcam, United Kingdom) was dissolved in the defined culture medium B27 mentioned above, devoid of serum, at an initial concentration of 40 μmol/L. This solution was gently agitated for 3 days at 37° C. in the dark and immediately used after being properly diluted in culture medium to the concentrations used (20 μM corresponding to 2 μM of AβO, measuring by WB, for survival, neurite network, tau phosphor and caspase 3 activation and 2.5 μM corresponding to 0.25 μM of AβO, for synapses evaluation).
CR777 was solved in DMSO at 10 mM and diluted in culture medium at different concentrations (see table below). The compound was tested on one primary cortical culture in 96 well plates (6 wells per conditions), and was pre-incubated 1 hour before Aβ1-42 application for 24 hours.
24 hours after intoxication, the cell culture supernatant was taken off and the cortical neurons were fixed by a cold solution of ethanol (95%) and acetic acid (5%) for 5 min at −20° C. • Plate 1: Immunostainning (MAP-2/Tau Phosphor)
After permeabilization with 0.1% of saponin, cells were incubated for 2 hours with a) a mouse monoclonal antibody anti phosphoT at dilution of 1/400 in PBS containing 1% fetal calf serum and 0.1% of saponin and b) a chicken polyclonal antibody anti microtubule-associated-protein 2 (MAP-2) at dilution of 1/1000 in PBS containing 1% fetal calf serum and 0.1% of saponin (this antibody stains specifically cell bodies and neurites, allowing study of neuronal cell survival and neurite network).
(§1) For each condition, 30 pictures/well (representative of ˜the all well area) were taken automatically using ImageXpress (Molecular Devices) with 20× magnification. All images were taken with the same conditions. Analysis were performed automatically by using Custom Module Editor (Molecular Devices).
The following endpoints were investigated per culture well: • The total neuron survival (MAP-2 staining), • The neurite network (MAP-2 staining) and • hyperphophorylation of T protein (pT) into neurons (pT/MAP-2). • Plate 2: Immunostainning (MAP-2/Caspase 3)
as §1, with “Devices). • The total number of caspase 3 positive neuron (overlapping caspase3/MAP-2) were investigated per culture well:” for “Devices).”
Data is expressed in percentage of control conditions (no injury, no compound=100%). All values are expressed as mean+/−SEM (standard error of the mean) from 6 wells per condition per culture. Neuro-Sys performed graphs and statistical analyses on the different conditions (ANOVA followed by Dunnett's test when allowed, using GraphPad Prism software version 5.0).

[1] = CR777 1 nM to 1 μM added 1 h before Aβ1-42 (20 μM, 24 h)
[2] = CR777 all doses (1 nM to 1 μM), Aβ1-42 20 μM, 24 h

`CC1=C(CO)C(=O)O[C@@H]([C@@H](C)[C@H]2CCC3C4C[C@H](SC[C@H](NC(=O)CC[C@@H](N)C(=O)O)C(=O)NCC(=O)O)[C@]5(O)[C@@H](O)C=CC(=O)[C@]5(C)C4CC[C@@]32C)C1` (stereo partly shown) [CR777] was tested, and the neurite network [1] was “significant protective effect”, the neuron survival [1] was “significant protective effect” and the “caspase 3 activation” value [2] was “decrease of caspase 3 activation”. The tau hyperphosphorylation [2] was “significant decrease”.
